Consider 6 molecules from ChEMBL document CHEMBL5465560, “Selectivity Literature for EUbOPEN Chemogenomic Library” (2024).

Assay [1] concerns the target T1, Eukaryotic elongation factor 2 kinase (Homo sapiens) (UniProt O00418).
T1 sequence (whole entry): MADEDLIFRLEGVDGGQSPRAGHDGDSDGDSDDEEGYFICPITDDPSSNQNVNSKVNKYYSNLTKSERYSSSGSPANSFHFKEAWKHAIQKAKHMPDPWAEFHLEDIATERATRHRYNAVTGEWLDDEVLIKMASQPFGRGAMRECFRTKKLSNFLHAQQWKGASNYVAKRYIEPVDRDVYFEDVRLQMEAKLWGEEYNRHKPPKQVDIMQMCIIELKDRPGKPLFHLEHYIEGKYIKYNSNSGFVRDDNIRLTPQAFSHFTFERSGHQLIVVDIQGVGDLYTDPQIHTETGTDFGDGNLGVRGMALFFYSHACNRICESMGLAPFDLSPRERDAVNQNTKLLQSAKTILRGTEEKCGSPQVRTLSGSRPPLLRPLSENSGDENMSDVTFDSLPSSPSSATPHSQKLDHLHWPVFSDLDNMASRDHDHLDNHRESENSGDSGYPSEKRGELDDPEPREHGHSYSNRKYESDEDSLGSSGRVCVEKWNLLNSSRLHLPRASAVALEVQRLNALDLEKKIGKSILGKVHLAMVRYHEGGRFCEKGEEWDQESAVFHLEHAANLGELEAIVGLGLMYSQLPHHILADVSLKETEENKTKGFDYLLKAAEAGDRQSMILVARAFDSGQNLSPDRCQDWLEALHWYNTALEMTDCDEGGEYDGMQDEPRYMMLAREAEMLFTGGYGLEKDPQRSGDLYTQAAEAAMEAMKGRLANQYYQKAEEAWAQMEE
Put plainly: Selectivity interaction (Kinase panel (KiNativ target engagement assay in Jurkat cells)) EUB0001635a EEF2K. It is filed as cell-based. As to conditions: Selectivity number of off-targets 0.0, Selectivity number of targets 233.0, Source Knowledge https://www.sciencedirect.com/science/article/pii/S2451945619300674?via%3Dihub, at 1 µM.

For assay [2], the target named is Serine/threonine-protein kinase OSR1 (Homo sapiens) (UniProt O95747). Put plainly: Selectivity interaction (KinomeScan (DiscoverX)) EUB0000229b OXSR1. As to conditions: at 10 µM.
The target in assay [3] is T2, Serine/threonine-protein kinase PLK4 (Homo sapiens) (UniProt O00444).
T2 sequence (whole entry): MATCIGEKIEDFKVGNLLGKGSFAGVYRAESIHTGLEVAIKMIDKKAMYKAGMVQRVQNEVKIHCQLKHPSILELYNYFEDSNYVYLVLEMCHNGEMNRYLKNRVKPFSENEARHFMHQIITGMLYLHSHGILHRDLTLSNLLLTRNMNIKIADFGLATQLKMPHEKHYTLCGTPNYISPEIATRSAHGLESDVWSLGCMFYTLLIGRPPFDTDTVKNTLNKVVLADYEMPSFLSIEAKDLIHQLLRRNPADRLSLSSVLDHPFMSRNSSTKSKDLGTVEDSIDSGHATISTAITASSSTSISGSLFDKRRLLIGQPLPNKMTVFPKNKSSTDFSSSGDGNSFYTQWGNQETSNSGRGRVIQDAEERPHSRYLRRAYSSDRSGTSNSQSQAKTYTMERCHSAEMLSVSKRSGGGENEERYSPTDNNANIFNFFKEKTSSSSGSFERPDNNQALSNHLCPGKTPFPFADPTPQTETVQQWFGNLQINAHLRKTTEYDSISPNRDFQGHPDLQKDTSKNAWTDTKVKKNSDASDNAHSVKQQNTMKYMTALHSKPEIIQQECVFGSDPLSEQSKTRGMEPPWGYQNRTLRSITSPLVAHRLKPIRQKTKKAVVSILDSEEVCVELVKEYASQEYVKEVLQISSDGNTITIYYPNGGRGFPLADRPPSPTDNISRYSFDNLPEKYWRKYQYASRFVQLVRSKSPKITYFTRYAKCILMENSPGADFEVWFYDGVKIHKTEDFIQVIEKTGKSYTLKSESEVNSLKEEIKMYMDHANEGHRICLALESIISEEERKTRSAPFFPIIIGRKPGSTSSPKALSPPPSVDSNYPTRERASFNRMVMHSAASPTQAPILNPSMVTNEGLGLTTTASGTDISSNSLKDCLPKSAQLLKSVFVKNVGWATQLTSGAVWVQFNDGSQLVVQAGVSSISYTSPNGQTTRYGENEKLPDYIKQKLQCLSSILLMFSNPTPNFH
Put plainly: Selectivity interaction (KinomeScan (DiscoverX)) EUB0000655a PLK4. The note with it: at 10 µM.

Assay [4] deals with Calcium/calmodulin-dependent protein kinase kinase 2 (Homo sapiens) (UniProt Q96RR4). Put plainly: Selectivity interaction (KinomeScan (DiscoverX)) EUB0001619a CAMKK2. The note with it: at 1 µM.
Assay [5] deals with Casein kinase I isoform alpha (Homo sapiens, UniProt P48729). Put plainly: Selectivity interaction (KinomeScan (DiscoverX)) EUB0000045b CSNK1A1.
The target in assay [6] is T3, Interleukin-1 receptor-associated kinase 4 (Homo sapiens) (UniProt Q9NWZ3).
T3 sequence (whole entry): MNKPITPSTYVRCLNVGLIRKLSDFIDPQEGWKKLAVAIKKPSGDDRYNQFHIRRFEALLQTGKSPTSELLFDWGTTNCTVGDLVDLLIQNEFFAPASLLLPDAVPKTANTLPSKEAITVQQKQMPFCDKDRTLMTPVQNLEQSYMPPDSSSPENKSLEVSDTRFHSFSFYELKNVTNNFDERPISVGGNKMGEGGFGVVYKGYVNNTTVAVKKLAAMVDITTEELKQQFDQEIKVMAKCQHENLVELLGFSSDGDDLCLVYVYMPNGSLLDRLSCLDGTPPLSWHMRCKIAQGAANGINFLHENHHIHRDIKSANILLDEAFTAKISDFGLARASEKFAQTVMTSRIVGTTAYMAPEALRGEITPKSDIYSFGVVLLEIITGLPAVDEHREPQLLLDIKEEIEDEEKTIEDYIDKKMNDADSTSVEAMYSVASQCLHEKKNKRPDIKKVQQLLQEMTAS
Put plainly: Selectivity interaction (Upstate Kinase Profiler service (Millipore)) EUB0000056c IRAK4. The note with it: at 1 µM.

Casein kinase I isoform alpha, sequence (P48729 2-337 limits assumed): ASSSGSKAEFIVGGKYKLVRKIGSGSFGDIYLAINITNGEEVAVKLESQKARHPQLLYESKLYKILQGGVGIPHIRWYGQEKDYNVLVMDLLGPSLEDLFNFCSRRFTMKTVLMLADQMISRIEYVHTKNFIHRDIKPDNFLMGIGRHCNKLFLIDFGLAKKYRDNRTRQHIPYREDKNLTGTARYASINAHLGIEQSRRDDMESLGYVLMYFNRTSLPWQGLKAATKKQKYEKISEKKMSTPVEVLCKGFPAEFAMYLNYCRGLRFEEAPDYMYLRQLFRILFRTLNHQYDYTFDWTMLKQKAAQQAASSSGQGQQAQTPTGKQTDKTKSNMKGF
Calcium/calmodulin-dependent protein kinase kinase 2 (Homo sapiens), sequence (Q96RR4 2-588 limits assumed): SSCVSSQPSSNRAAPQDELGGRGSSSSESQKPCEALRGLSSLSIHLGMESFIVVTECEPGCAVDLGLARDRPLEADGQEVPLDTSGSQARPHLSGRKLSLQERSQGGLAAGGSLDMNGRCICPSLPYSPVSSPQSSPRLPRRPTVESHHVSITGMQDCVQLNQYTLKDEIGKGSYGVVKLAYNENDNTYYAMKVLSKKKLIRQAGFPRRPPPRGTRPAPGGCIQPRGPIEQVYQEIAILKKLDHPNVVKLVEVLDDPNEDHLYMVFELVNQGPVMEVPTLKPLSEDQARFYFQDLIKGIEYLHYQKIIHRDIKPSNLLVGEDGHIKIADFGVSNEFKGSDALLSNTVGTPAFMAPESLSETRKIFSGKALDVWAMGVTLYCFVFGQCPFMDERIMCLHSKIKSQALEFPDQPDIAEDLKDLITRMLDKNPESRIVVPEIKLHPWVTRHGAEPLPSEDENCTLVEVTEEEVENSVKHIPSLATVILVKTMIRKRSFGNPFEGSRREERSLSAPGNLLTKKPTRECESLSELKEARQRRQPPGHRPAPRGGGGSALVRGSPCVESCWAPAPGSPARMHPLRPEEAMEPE
Serine/threonine-protein kinase OSR1 (Homo sapiens), sequence (O95747 2-527 limits assumed): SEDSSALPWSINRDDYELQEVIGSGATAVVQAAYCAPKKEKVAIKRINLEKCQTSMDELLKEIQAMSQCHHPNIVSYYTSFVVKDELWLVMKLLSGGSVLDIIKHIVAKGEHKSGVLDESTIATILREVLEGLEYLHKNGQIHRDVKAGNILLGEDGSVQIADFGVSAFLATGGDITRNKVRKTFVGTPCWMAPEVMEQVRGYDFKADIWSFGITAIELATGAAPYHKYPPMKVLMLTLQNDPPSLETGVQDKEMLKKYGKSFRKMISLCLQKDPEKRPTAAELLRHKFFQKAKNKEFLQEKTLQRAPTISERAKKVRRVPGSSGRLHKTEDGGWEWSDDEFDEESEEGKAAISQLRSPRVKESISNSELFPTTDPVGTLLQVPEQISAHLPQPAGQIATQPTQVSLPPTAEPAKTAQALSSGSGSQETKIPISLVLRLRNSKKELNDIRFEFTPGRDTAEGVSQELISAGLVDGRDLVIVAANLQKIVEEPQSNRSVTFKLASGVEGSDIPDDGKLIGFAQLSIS

For the molecule `C=CC(=O)Nc1ccc(C(=O)Nc2[nH]nc3c2CN(C(=O)N[C@H](CN(C)C)c2ccccc2)C3(C)C)cc1`, the % of engagement in assay [1] is -14.2%.
Molecule `COc1cc(N(C)c2ccnc3ccc(C(F)(F)F)cc23)cc(OC)c1OC` came in with a % binding in assay [2] of 79%.
As to `CN(C)CCOc1ccc(-c2nc(-c3ccncc3)c(-c3ccc4c(c3)CC/C4=N\O)[nH]2)cc1`, the % of control in assay [3] came out at 83%.
As to `N#Cc1cccc(-c2c[nH]c3ncnc(N4CCOCC4)c23)c1`, the % of control in assay [4] is 78%.
As to `C=CC(=O)Nc1cc(-n2c(=O)ccc3cnc4ccc(-c5ccc(NS(C)(=O)=O)cc5)cc4c32)ccc1C`, the % of control in assay [5] (at 1 µM) and in assay [5] (at 10 µM) was 100% each time.
Take `Cc1ccc(-c2ccc3c(ccc4sc5c(c43)NC[C@@H](C)NC5=O)n2)cn1`: the % of inhibition in assay [6] was 13%.
